Here are results for one cell line from the supplement of paper PMC10307832.

Holding throughout (experiment): relative viability (nuclei count vs DMSO), 5 days (fraction); higher = more cells survive
Compound in assay [1]: CCC1=CN=CN=C1N2CCN(CC2)CC3=NC4=C(N3)C=C(C=C4)C(F)(F)F + CC1(C)CCC(c2ccc(Cl)cc2)=C(CN2CCN(c3ccc(C(=O)NS(=O)(=O)c4ccc(N[C@H](CCN5CCOCC5)CSc5ccccc5)c(S(=O)(=O)C(F)(F)F)c4)cc3)CC2)C1 [Navitoclax] (partner 0.5 µM)
The procedure, abridged:
(§1)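 The day after seeding in 1536-well plates, lung cancer cell lines were treated by pin tool with a single drug, or with a fixed anchor-drug dose together with five library-drug doses (not always all listed) in √10 steps. After 5 days, a combined fix-and-stain solution (final 0.05% Triton X-100, 1% formaldehyde, 1 ug/ml Hoechst) was added. Nuclei counted on 4× images gave relative viability as treated counts over vehicle counts, reported as the median of duplicate plates.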

Compound in assay [2]: CCn1c(-c2nonc2N)nc2cnc(Oc3cccc(NC(=O)c4ccc(OCCN5CCOCC5)cc4)c3)cc21 + Cc1nc(NC(=O)N2CCC[C@H]2C(N)=O)sc1-c1ccnc(C(C)(C)C(F)(F)F)c1 [Alpelisib] (partner 2 µM)
The procedure, abridged:
as §1

Compound in assay [3]: CCn1c(-c2nonc2N)nc2cnc(Oc3cccc(NC(=O)c4ccc(OCCN5CCOCC5)cc4)c3)cc21 + Nc1nc2[nH]cc(CCc3ccc(C(=O)N[C@@H](CCC(=O)O)C(=O)O)cc3)c2c(=O)[nH]1 [Pemetrexed] (partner 0.2 µM)
The procedure, abridged: as §1

Compound in the assay “Mirin + Tozasertib”: N=C1NC(=O)/C(=C/c2ccc(O)cc2)S1 [Mirin] + Cc1cc(Nc2cc(N3CCN(C)CC3)nc(Sc3ccc(NC(=O)C4CC4)cc3)n2)n[nH]1 [Tozasertib] (partner 0.1 µM)
In short, it runs like this:
as §1

Turning to UMC-11, the relative viability in assay [1] (first compound 0.04 µM) came to 0.319; in assay [1] (first compound 0.1265 µM), 0.304; in assay [1] (first compound 0.4 µM), 0.312; in assay [1] (first compound 1.265 µM) it was 0.284; in assay [1] (first compound 4 µM), 0.305; in assay [2] (first compound 0.04 µM), 1.17. Besides, the relative viability is 0.991 in assay [2] (first compound 0.1265 µM); 0.78 in assay [2] (first compound 0.4 µM); 0.251 in assay [2] (first compound 1.265 µM); 0.233 in assay [2] (first compound 4 µM); 0.813 in assay [3] (first compound 0.04 µM); 0.596 in assay [3] (first compound 0.1265 µM). Moreover, the relative viability in assay [3] (first compound 0.4 µM) was 0.613; in assay [3] (first compound 1.265 µM) it was 0.283; in assay [3] (first compound 4 µM), 0.231; in the assay with Mirin + Tozasertib (first compound 0.25 µM) it was 0.196; with Mirin + Tozasertib (first compound 2.5 µM), 0.203; in the assay with Mirin + Tozasertib (first compound 7.906 µM) it was 0.181. Moreover, the relative viability with Mirin + Tozasertib (first compound 25 µM) was found to be 0.189.
